Measurements published in US20010044463A1, “Methods for controlling gram negative bacteria in mammals” (priority 1997, published 2001).
Converted amounts (≈) assume the structure as drawn.

Assays:
H. pylori ATCC 43504 = assay: Minimum Inhibitory Concentration (MIC) blood agar plate growth inhibition; format: cell-based, Helicobacter pylori
Protocol: Subsequent dilutions were made in ethanol immediately prior to use. […] Subsequent dilutions were made in BHI medium (Brain heart infusion broth, Difco #0037-07-0) immediately prior to use.
(§1) Blood agar base (BAB) was prepared containing 1.5% agar and autoclaved. 20 ml samples of autoclaved BAB were poured into 50 mL tubes and placed in a 56° C. water bath.
The mixed media preparation was poured into a petri dished and allowed to solidify.
(§2) Prior to inoculation of petri plates, bacteria or cultures were examined for morphology under a phase microscope to confirm motility and physical characteristics, e.g., spiral shaped. The organisms were washed off the plate into PBS (Phosphate buffered saline) (80.0 g NaCl, 2.0 g KCl, 2.4 g KH2PO4 11.5 g Na2HPO4 or 24.4 g Na2HPO4/2H2O per 1 liter deionized water, pH 7.2, sterilized by autoclaving) and diluted into BHI at a concentration of 10^8/ml (O.D. of 0.3 units diluted 1:30). Ten microliters of solution containing 10^6 organisms were spread onto a petri plate and grown under microaerophilic conditions for 3 days unless specified. Control organisms were grown under microaerophilic conditions.
(§3) Inhibition of growth was determined by the amount of colonies present within the petri plate. The following factors were used for growth inhibition: ±=0-20 colonies, +=20-50 colonies, ++=50-200 colonies and +++=200+ colonies.

[1] = test system: H. pylori (urease positive) ATCC Number 51652; assay: as above; format: cell-based, Helicobacter pylori; settings: Table XVII, Blood agar base + 3% sheep blood
Protocol: (§4) Monensin (Sigma Cat. No. M-5273) was dissolved in 100% absolute ethanol (AAPER Alcohol and Chemical Co.) at a concentration of 20 mg/ml. Subsequent dilutions were made in ethanol immediately prior to use. Nigericin (Sigma Cat. No. N-7143) was dissolved in DMSO at 2 mg/ml. Subsequent dilutions were made in BHI medium (Brain heart infusion broth, Difco #0037-07-0) immediately prior to use.
as §1
(§5) 100 μl of a drug (final concentration equivalent to 1:200 of original concentration) and 1.2 ml of sheep blood (Colorado Senun Company # CS-1112) (blood diluted in a 1:1 buffer providing a 3% concentration of blood per 20 ml medium sample) were added to 20 ml sample of media and mixed. The mixed media preparation was poured into a petri dished and allowed to solidify.
as §2, §3

Staph ATCC 14775 = assay: Blood agar plate growth inhibition, control organism; format: cell-based; settings: Table XV, Non microaerophilic conditions
Protocol: as §4, §1, §5
as §2, with “Control organisms were grown under microaerophilic conditions.” left out
as §3

[2] = Tables IX-XIII, final drug concentration 0.098 μg/ml
[3] = Tables IX-XIII, final drug concentration 0.195 μg/ml
[4] = Tables IX-XIII, final drug concentration 0.39 μg/ml
[5] = Tables IX-XIII, final drug concentration 0.78 μg/ml
[6] = Tables IX-XIII, final drug concentration 1.56 μg/ml
[7] = Tables IX-XIII, final drug concentration 3.125 μg/ml
[8] = Tables IX-XIII, final drug concentration 6.25 μg/ml
[9] = Tables IX-XIII, final drug concentration 12.5 μg/ml
[10] = Tables IX-XIII, final drug concentration 25 μg/ml
[11] = Tables IX-XIII, final drug concentration 50 μg/ml
[12] = Tables IX-XIII, final drug concentration 100 μg/ml
[13] = final drug concentration 0.1 ng/ml
[14] = final drug concentration 1 ng/ml
[15] = final drug concentration 10 ng/ml
[16] = final drug concentration 100 ng/ml
[17] = final drug concentration 1 μg/ml
[18] = final drug concentration 10 μg/ml

Compound	MIC (H. pylori ATCC 43504; Tables IX-XIII)	growth (amount of colonies present within the petri plate) (H. pylori ATCC 43504; [2])	growth (amount of colonies present within the petri plate) (H. pylori ATCC 43504; [3])	growth (amount of colonies present within the petri plate) (H. pylori ATCC 43504; [4])	growth (amount of colonies present within the petri plate) (H. pylori ATCC 43504; [5])	growth (amount of colonies present within the petri plate) (H. pylori ATCC 43504; [6])	growth (amount of colonies present within the petri plate) (H. pylori ATCC 43504; [7])	growth (amount of colonies present within the petri plate) (H. pylori ATCC 43504; [8])	growth (amount of colonies present within the petri plate) (H. pylori ATCC 43504; [9])	growth (amount of colonies present within the petri plate) (H. pylori ATCC 43504; [10])	growth (amount of colonies present within the petri plate) (H. pylori ATCC 43504; [11])	growth (amount of colonies present within the petri plate) (H. pylori ATCC 43504; [12])	growth (amount of colonies present within the petri plate) [1, 13]	growth (amount of colonies present within the petri plate) [1, 14]	growth (amount of colonies present within the petri plate) [1, 15]	growth (amount of colonies present within the petri plate) [1, 16]	growth (amount of colonies present within the petri plate) [1, 17]	growth (amount of colonies present within the petri plate) [1, 18]	other results
26-O Phenylmonensin [Monensin phenyl carbamate]	MIC = 1.56 μg/ml	(+++) (+++=200+ colonies)	(+++) (+++=200+ colonies)	(++) (++=50-200 colonies)	(++) (++=50-200 colonies)	(+) small colonies (+=20-50 colonies)	(±) few small colonies (±=0-20 colonies)	No growth	No growth	No growth	No growth	No growth							
C[C@H](CCC(=O)O)C[C@H](C)C[C@H](C)C(=O)/C=C(\O)[C@H](C)C[C@H](C)C/C=C/[C@@H](C)[C@@H](O)[C@@H](C)[C@@H](O)C[C@@H]1CC[C@@](C)([C@H]2CC[C@@](C)([C@@H](C)O)O2)O1 [Ionomycin, ionomycin]													(+++) (+++=200+ colonies)	(+++) (+++=200+ colonies)	(+++) (+++=200+ colonies)	(+++) (+++=200+ colonies)	(+++) (+++=200+ colonies)	(+++) (+++=200+ colonies)	
CC[C@@]1([C@@H]2O[C@@H]([C@H]3O[C@@](O)(CO)[C@H](C)C[C@@H]3C)C[C@@H]2C)CC[C@H]([C@]2(C)CC[C@]3(C[C@H](O)[C@@H](C)[C@@H]([C@@H](C)[C@@H](OC)[C@H](C)C(=O)OCc4ccccc4)O3)O2)O1 [Benzyl Monensin, monensin benzyl ester]	MIC = 25 μg/ml	(+++) (+++=200+ colonies)	(+++) (+++=200+ colonies)	(+++) (+++=200+ colonies)	(+++) (+++=200+ colonies)	(+++) (+++=200+ colonies)	(+++) (+++=200+ colonies)	(+++) (+++=200+ colonies)	(++) (++=50-200 colonies)	(±) (±=0-20 colonies)	(±) (±=0-20 colonies)	(±) (±=0-20 colonies)							
CCC1(C2OC(C3OC(O)(COC(=O)NC(C)NC(=O)OCC4c5ccccc5-c5ccccc54)C(C)CC3C)CC2C)CCC(C2(C)CCC3(CC(O)C(C)C(C(C)C(OC)C(C)C(=O)O)O3)O2)O1 (stereo not shown) [Fmoc-Ala-monensin, 26-O-[1-(Fmoc-amino)ethylcarbamoyl] monensin]	MIC = 6.25 μg/ml	(+++) (+++=200+ colonies)	(+++) (+++=200+ colonies)	(+++) (+++=200+ colonies)	(+++) (+++=200+ colonies)	(+++) (+++=200+ colonies)	(+++) (+++=200+ colonies)	(±) (±=0-20 colonies)	No growth	No growth	No growth	No growth							
CNc1ccc2oc(C[C@H]3O[C@@]4(CC[C@H]3C)O[C@H]([C@H](C)C(=O)c3ccc[nH]3)[C@H](C)C[C@H]4C)nc2c1C(=O)O [A23187]													(+++) (+++=200+ colonies)	(+++) (+++=200+ colonies)	(+++) (+++=200+ colonies)	(+++) (+++=200+ colonies)	No growth	No growth	
CC[C@@H](C(=O)[C@@H](C)[C@@H](O)[C@H](C)[C@@H]1O[C@@H]([C@@H](CC)C(=O)O)CC[C@@H]1C)[C@H]1O[C@]2(C=C[C@@H](O)[C@]3(CC[C@@](C)([C@H]4CC[C@](O)(CC)[C@H](C)O4)O3)O2)[C@H](C)C[C@@H]1C [Salinomycin, salinomycin]													(+++) (+++=200+ colonies)	(+++) (+++=200+ colonies)	(+++) (+++=200+ colonies)	(+++) (+++=200+ colonies)	(+++) (+++=200+ colonies)	No growth	MIC (H. pylori ATCC 43504; Helicobacter pylori, ATCC43504): 6.25 µg/mL (≈ 8.32 µM); growth (amount of colonies present within the petri plate) (H. pylori ATCC 43504; Table VII, urease positive, final drug concentration 0.098 μg/ml): (+++) (+++=200+ colonies); growth (amount of colonies present within the petri plate) (H. pylori ATCC 43504; Table VII, urease positive, final drug concentration 0.195 μg/ml): (+++) (+++=200+ colonies); growth (amount of colonies present within the petri plate) (H. pylori ATCC 43504; Table VII, urease positive, final drug concentration 0.39 μg/ml): (+++) (+++=200+ colonies); growth (amount of colonies present within the petri plate) (H. pylori ATCC 43504; Table VII, urease positive, final drug concentration 0.78 μg/ml): (+++) (+++=200+ colonies); growth (amount of colonies present within the petri plate) (H. pylori ATCC 43504; Table VII, urease positive, final drug concentration 1.56 μg/ml): (+++) (+++=200+ colonies); growth (amount of colonies present within the petri plate) (Staph ATCC 14775; [15]): (+++) (+++=200+ colonies); growth (amount of colonies present within the petri plate) (Staph ATCC 14775; [16]): (+++) (+++=200+ colonies); growth (amount of colonies present within the petri plate) (Staph ATCC 14775; [17]): (+++)^1 (+++=200+ colonies); growth (amount of colonies present within the petri plate) (Staph ATCC 14775; [18]): No growth
CCC1(C2OC(C3OC(O)(COC(=O)Nc4cccnc4)C(C)CC3C)CC2C)CCC(C2(C)CCC3(CC(O)C(C)C(C(C)C(OC)C(C)C(=O)O)O3)O2)O1 (stereo not shown) [Monensin pyridyl carbamate, 26-O-(3-pyridylcarbamoyl) monensin]	MIC = 3.12 μg/ml	(+++) (+++=200+ colonies)	(+++) (+++=200+ colonies)	(+++) (+++=200+ colonies)	(+++) (+++=200+ colonies)	(++) (++=50-200 colonies)	(±) (±=0-20 colonies)	No growth	No growth	No growth	No growth	No growth							
